Several values for one entry are separate records, joined by “and”; a condition that tells them apart may be missing. Identical values can stand only once.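 Growth conditions: 96-well plates. Treatment: test compound, 48 hours, 5 concentrations. Analysis: linear interpolation between bracketing concentrations; unreached endpoints set to highest concentration. GI50 is the concentration that inhibits growth by half. TGI denotes the concentration required for complete inhibition of growth.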
What was measured:
Test in all cases: growth of human tumour cells (NCI), 48 h
HL-60(TB) leukemia = test system: HL-60(TB) leukemia
MDA-MB-435 = test system: MDA-MB-435
SW-620 colon = test system: SW-620 colon
NCI-H522 lung = test system: NCI-H522 lung
A549 NSCLC = test system: A549 NSCLC
PC-3 prostate = test system: PC-3 prostate
RPMI-8226 leukemia = test system: RPMI-8226 leukemia
MDA-MB-231 breast = test system: MDA-MB-231 breast
NCI-H226 lung = test system: NCI-H226 lung
MDA-N = test system: MDA-N

Row | SMILES | TGI (HL-60(TB) leukemia) | TGI (MDA-MB-435) | TGI (SW-620 colon) | TGI (NCI-H522 lung) | TGI (A549 NSCLC) | TGI (PC-3 prostate) | TGI (RPMI-8226 leukemia) | TGI (MDA-MB-231 breast) | TGI (NCI-H226 lung) | TGI (MDA-N) | GI50 (MDA-MB-435) | GI50 (MDA-MB-231 breast) | GI50 (MDA-N) | GI50 (PC-3 prostate) | GI50 (HL-60(TB) leukemia) | GI50 (SW-620 colon) | GI50 (NCI-H522 lung) | GI50 (A549 NSCLC) | GI50 (RPMI-8226 leukemia) | GI50 (NCI-H226 lung)
1 | N#CCc1[nH]nc2nc(SCc3ccccc3)nc(N3CCCCC3)c12 | 43.6 µM | 35 µM | 35 µM | 37.9 µM | 34.5 µM | 34 µM | 43.2 µM | – | – | – | – | – | – | – | – | – | – | – | – | –
2 | CC(=O)C1(c2ccccc2)CCCN(C)CC1 (stereo not given) | – | > 100 µM | > 100 µM | – | – | > 100 µM | > 100 µM | > 100 µM | > 100 µM | – | – | – | – | – | – | – | – | – | – | –
3 | O=C1c2ccccc2-c2ccc(O)cc21 | 75.4 µM | 59.6 µM | > 100 µM | 32.9 µM | 88 µM | 42.9 µM | > 100 µM | 44.2 µM | > 100 µM | – | – | – | – | – | – | – | – | – | – | –
4 | COc1ccc(OC)c2sc(N3C(=O)/C(=C/c4ccccc4S)N=C3c3ccccc3)nc12 | 79.3 µM | 52 µM | > 100 µM | – | > 100 µM | 56.5 µM | 58.4 µM | > 100 µM | – | 49.5 µM | – | – | – | – | – | – | – | – | – | –
5 | CCn1cc(C(=O)O)c(=O)c2cc(F)c(N3CCN(Cn4c(O)c(N=NC(=O)c5ccncc5)c5cc(Cl)ccc54)CC3)cc21 | 37 µM | > 100 µM | > 100 µM | 63.6 µM | > 100 µM | > 100 µM | – | > 100 µM | > 100 µM | > 100 µM | – | – | – | – | – | – | – | – | – | –
6 | CCC(C)C(NC(=O)C(CCCCN)NC(=O)C(NC(=O)C(CCC(N)=O)NC(=O)C(CCCNC(=N)N)NC(C)=O)C(C)CC)C(=O)NC(Cc1c[nH]c2ccccc12)C(=O)NC(Cc1ccccc1)C(=O)NC(CCC(N)=O)C(=O)NC(CC(N)=O)C(=O)NC(CCCNC(=N)N)C(=O)NC(CCCNC(=N)N)C(=O)NC(CCSC)C(=O)NC(CCCCN)C(=O)NC(Cc1c[nH]c2ccccc12)C(=O)NC(CCCCN)C(=O)NC(CCCCN)C(N)=O (stereo not given) | > 50 µM | > 50 µM | > 50 µM | > 50 µM | > 50 µM | > 50 µM | > 50 µM | 41.3 µM | – | > 50 µM | – | – | – | – | – | – | – | – | – | –
7 | COC1CCC(OS(C)(=O)=O)CO1 (stereo not given) | > 100 µM | – | – | > 100 µM | – | – | 98.2 µM | – | – | – | – | – | – | – | – | – | – | – | – | –
8 | CN1CCC23c4ccccc4NC1C21CCN(C)C3Nc2ccccc21 | 109 µM | – | > 375 µM | > 375 µM | > 375 µM | – | > 182 µM | – | > 209 µM | – | – | – | – | – | – | – | – | – | – | –
9 | S=C(NCCCCCCNC(=S)Nc1c2ccccc2nc2ccccc12)Nc1c2ccccc2nc2ccccc12 | > 100 µM | – | > 100 µM | > 100 µM | > 100 µM | – | > 100 µM | – | > 30.1 µM | – | – | – | – | – | – | – | – | – | – | –
10 | O=C1c2scnc2-c2nccc3c2c1nc1ccccc13 | – | 0.307 µM | – | > 100 µM | 4.87 µM | > 100 µM | > 100 µM | – | – | – | – | – | – | – | – | – | – | – | – | –
11 | N=C(N)C(N=Nc1ccccc1)C(=N)N (stereo not given) | 54.2 µM | 42.7 µM | > 100 µM | > 100 µM | > 100 µM | > 100 µM | > 100 µM | 97.8 µM | 73.8 µM | 61.2 µM | – | – | – | – | – | – | – | – | – | –
12 | CO[C@@]12C[C@@H](CNC(=O)c3cc(Br)c[nH]3)O[C@@H]1NC(=O)N2 | – | > 100 µM | > 100 µM | > 100 µM | > 100 µM | > 100 µM | > 100 µM | > 100 µM | > 100 µM | – | – | – | – | – | – | – | – | – | – | –
13 | COc1nc(C#CCCCC#N)nc(OC)n1 | 71.6 µM | 27.7 µM | 32.5 µM | 29.4 µM | 31.9 µM | 30.9 µM | – | 29.3 µM | – | 56.1 µM | – | – | – | – | – | – | – | – | – | –
14 | Cc1nc(Cl)c(C)c(Cl)n1 | > 68.4 µM | > 100 µM | > 100 µM | – | > 100 µM | > 100 µM | > 100 µM | > 100 µM | > 100 µM | > 100 µM | – | – | – | – | – | – | – | – | – | –
15 | C=CCOCCCC(=O)C(=[N+]=[N-])C(=O)OC | > 100 µM | – | > 100 µM | > 100 µM | > 100 µM | – | > 100 µM | – | > 100 µM | – | – | – | – | – | – | – | – | – | – | –
16 | C=C1C(C2(C)C=CC(=O)OC3(C)COC(=O)CC32)C(OC=O)C(OC(=O)C(O)C(C)CC)C2(C)C(c3ccoc3)CC(OC(C)=O)C12O (stereo not given) | 9.41 µM | > 100 µM | > 100 µM | > 100 µM | > 100 µM | > 100 µM | > 100 µM | > 100 µM | > 100 µM | > 100 µM | – | – | – | – | – | – | – | – | – | –
17 | Cc1c(N)nc([C@H](CC(N)=O)NC[C@H](N)C(N)=O)nc1C(=O)N[C@H](C(=O)N[C@H](C)[C@@H](O)[C@H](C)C(=O)N[C@H](C(=O)NCCc1nc(-c2nc(C(=O)NCCC[S+](C)C)cs2)cs1)[C@@H](C)O)C(OC1OC(CO)C(O)C(O)C1OC1OC(CO)C(O)C(OC(N)=O)C1O)c1cnc[nH]1 (stereo not given in full) | – | 25 µM and > 100 µM | – | – | – | 25 µM and > 100 µM | – | 25 µM and > 100 µM | – | 24.4 µM and 25 µM and > 100 µM | 25.3 µM | 23.3 µM and 78.8 µM | 8.86 µM and 23.8 µM | 2.63 µM and 5.22 µM | – | – | – | – | – | –
18 | CCCCC1Cc2cc(OC)ccc2-c2nc3cc(OC)ccc3n21 (stereo not given) (tested in a mixture with another compound) | 34.9 µM | 26.3 µM | 27.8 µM | 21.1 µM | 27.9 µM | 24.7 µM | 24.4 µM | 25.7 µM | 28.1 µM | 27 µM | – | – | – | – | – | – | – | – | – | –
19 | COC1(OC)C[C@H](C)[C@@]23O[C@]24c2cc(O)c5c(c2N[C@H]3C#C/C=C\C#C[C@]14O)C(=O)c1ccccc1C5=O | 0.00105 µM | 0.139 µM and 0.175 µM | 0.167 µM and 0.215 µM | 0.0664 µM and 0.0606 µM | 0.0489 µM and 0.0352 µM | 0.182 µM | 0.0604 µM and 0.0392 µM | – | 0.00755 µM | 0.139 µM and 0.108 µM | 0.0184 µM | 0.0199 µM | 0.00836 µM | 0.163 µM | < 0.001 µM | 0.00373 µM | 0.0088 µM | < 0.001 µM | 0.0015 µM | –
20 | OC(c1ccc(-c2ccccc2)cc1)(c1ccc(-c2ccccc2)cc1)c1ccc(-c2ccccc2)cc1 | – | > 100 µM | – | > 100 µM | > 100 µM | > 100 µM | > 100 µM | > 100 µM | – | > 100 µM | – | – | – | – | – | – | – | – | – | –
21 | Cc1c(Cl)c(=O)oc2cc(OCC(=O)c3ccccc3)ccc12 | > 100 µM | > 100 µM | > 100 µM | > 100 µM | > 100 µM | > 100 µM | – | 75.4 µM | > 100 µM | > 100 µM | – | – | – | – | – | – | – | – | – | –
22 | CC(=O)C1=C(O)C2(O)C(=O)c3c(c(C)c4ccc(C)c(O)c4c3O)CC2C(N)C1=O (stereo not given) | 5.07 µM | 4.86 µM | 23.6 µM | > 29.5 µM | 11.5 µM | 11.7 µM | 12.8 µM | 4.99 µM | 8.2 µM | – | 1.11 µM | 0.73 µM | – | 0.754 µM | – | – | – | – | – | –
23 | CN(C)CCNc1c([N+](=O)[O-])cc2c3c(cccc13)C(=O)N(CCN(C)C)C2=O | 5.53 µM | – | 5.59 µM | 2.79 µM | – | – | 11.6 µM | – | > 100 µM | – | – | – | – | – | – | – | – | – | – | –
24 | O=C(O)C(Cc1ccccc1)N1C(=O)c2ccccc2C1=O (stereo not given) | 10.8 µM | > 100 µM | 84.9 µM | > 100 µM | > 100 µM | > 100 µM | > 100 µM | > 100 µM | > 100 µM | > 100 µM | – | – | – | – | – | – | – | – | – | –
25 | Cc1c2c(cc3c1[nH]c1ccccc13)C(c1ccc(F)cc1)=NCC2 | 1.57 µM | – | 5.46 µM | 3.85 µM | 6.47 µM | – | 2.54 µM | – | 4.64 µM | – | – | – | – | – | – | – | – | – | – | –
26 | O=C1CC(N2C(=O)/C(=C/C(Cl)=C\c3ccc([N+](=O)[O-])cc3)SC2=S)C(=O)N1c1ccc(Cl)cc1 (stereo not given) | 8.86 µM | 3.39 µM | 3.89 µM | 4.36 µM | – | 4.15 µM | 0.979 µM | 47.8 µM | 4.65 µM | – | 1.65 µM | 3.75 µM | – | 1.34 µM | 1.45 µM | 0.508 µM | 1.73 µM | – | 0.303 µM | 1.92 µM

From PubChem BioAssay (NCI)
